# Experimental data reported in patent publication US6423834B1, “KDO aldolase and condensation reactions employed therewith” (The Scripps Research Institute, priority 1992, dated 2002).
# Where two headings read alike, the source gives them in different places.
# Assays:
# [1] = tested on: KDO aldolase (EC 4.1.2.23); experiment: KDO aldolase-catalyzed aldol condensation of sugars with pyruvate (kinetic and relative rate measurements via remaining pyruvate); assay type: biochemical, Aureobacterium barkerei strain KDO-37-2; settings: for rel. V (relative rate of aldol condensation): pyruvate 10 mM, sugar 0.5 M, 0.1 M phosphate pH 7.5, 37° C., relative to D-arabinose
# Source text: (§1) Partially purified KDO aldolase simply obtained by ammonium sulfate precipitation (8.0 U/mL; 0.19 U/mg for degradation of KDO) was used in substrate-specificity studies reported herein. The KDO aldolase employed for the kinetic analysis reported herein, was further purified via DEAE sepharose and phenyl sepharose column chromatography to a specific activity of 5.7 U/mg. […] The enzymatic reaction favors the cleavage of KDO, with the equilibrium constant Keq=[pyruvate][arabinose]/KDO=9×10^−2M.
# The rates for aldolase-catalyzed reactions were obtained by measuring the amount of remaining pyruvate, according the method of Kim (supra). The reactions were carried out in 0.1 M phosphate buffer (pH 7.5) containing: varied concentrations of pyruvate, 2.0, 3.33, 5, and 10 mM; varied concentrations of D-arabinose, 0.2, 0.25, 0.33, and 0.50 M in 0.5 mL of solution. Each solution was incubated at 37° C. Periodically, a small aliquot (25-100 μL) was withdrawn and mixed with an assay solution (1.4 mL) containing 0.1 M phosphate (pH 7.5) buffer, 0.3 mM NADH, and 20-30 U of L-lactate dehydrogenase. The decrease in absorbance at 340 nm was measured and converted into the amount of the unreacted pyruvate using 6220 M^−1cm^−1 for the molecular absorbance of NADH. The kinetic parameters were obtained from the Lineweaver-Burk plots.
# For the relative rate measurements, the concentration of pyruvate (fluoropyruvate) and sugar were fixed at 10 mM and 0.5 M, respectively. Other conditions were the same as above.
# KDO aldolase [2] = settings: enzyme from E. coli; cited from earlier work
# KDO aldolase [3] = settings: enzyme from Aerobacter cloacae; cited from earlier work
# [4] = Proportion of β-isomer by comparing 1H NMR spectra; assay type: physicochemical
# Method: Finally, the aldol reaction with an unnatural sugar containing a fluorine atom was conducted to give 18 (19% of 19). By comparing the ^1H NMR spectra, the proportion of the β-isomer (10.71) of 18 was ca. 1.5 times higher than that of KDO (6.9%), probably due to the absence of furanose and 1<<5 lactone forms. […] (Kohlbrenner, W. E. and Fesik, S. W., J. Biol. Chem. 1985, 260, 14695.) We therefore synthesized 18 in a larger scale by combining the use of KDO aldolase and pyruvate decarboxylase, which made the workup procedure much easier.
# [5] = tested on: KDO aldolase (EC 4.1.2.23); experiment: KDO aldolase degradation (cleavage) of KDO; assay type: biochemical, Aureobacterium barkerei strain KDO-37-2; settings: read-out: Km in the course of degradation
# Method: It is disclosed herein that the Gram-positive bacterium Aureobacterium barkerei strain KDO-37-2 can be induced to contain high levels of KDO aldolase. The aldolase activity from this source was assayed according to Aminoff's method (Biochem. J. 1961, 81, 384). Two liters of culture contained 10.2 U based on the degradation of KDO. This KDO activity is 4 times and 8 times higher than the corresponding KDO activity from Escherichia coli K-12 and Aerobacter cloacae, respectively, as reported by Gharambor (supra).
# as §1
# With one slight modification, the incubation was carried out according to the procedure reported by Gharambor (supra). […] The enzyme activity was determined to be 1.45 U/mL for the degradation of KDO according to the method of Aminoff (Biochem. J. 1961, 81, 384). […]
smiles,measurement,setting,value
O=CC[C@H](O)[C@H](O)CO [2-deoxy-D-ribose],rel. V (relative rate of aldol condensation),[1],71%
O=C[C@@H](O)[C@H](O)[C@H](O)[C@H](O)CO [D-altrose],rel. V (relative rate of aldol condensation),[1],25%
"O=C[C@@H](O)[C@H](O)[C@H](O)CO [D-arabinose, reference compound]",Vmax,"[1]; condensation of D-arabinose with pyruvate, enzyme purified to 5.7 U/mg",0.73 U/mg
O=C[C@H](O)[C@H](O)[C@H](O)CO [D-ribose],rel. V,KDO aldolase [2],< 5%
same,rel. V,KDO aldolase [3],< 5%
same,rel. V (relative rate of aldol condensation),[1],72%
"O=C(O)C(=O)C[C@@H](O)[C@@H](O)[C@H](O)[C@H](O)CO [KDO, 3-deoxy-D-manno-2-octulosonic acid]",proportion of the β-isomer,[4],6.9%
same,Km,[5],6 mM
C[C@H](O)[C@@H](O)[C@@H](O)[C@H](O)C=O [L-fucose],rel. V (relative rate of aldol condensation),[1],rate not detectable
O=C(O)C(=O)CF [fluoropyruvate],accepted as substrate for the condensation,[1],neither fluoropyruvate nor ketohexose was accepted
